Results taken from patent publication US5773225A, “Screening method for the identification of compounds capable of abrogation HIV-1 gag-cyclophilin complex formation” (The Trustees of Columbia University in the City of New York, priority 1994, dated 1998).
Non-standard residues stand in square brackets, D forms with d. Residues, ends and D or L forms follow the SMILES beside them. ξ: configuration not given here. ξNMeBmt = C/C=C/C[C@@H](C)[C@@H](O)C(NC)C(=O)O; NMeL = CN[C@@H](CC(C)C)C(=O)O; NMeV = CN[C@H](C(=O)O)C(C)C; NMeA = CN[C@@H](C)C(=O)O; Abu = CC[C@H](N)C(=O)O; Sar = CNCC(=O)O

B1: Tat protein: Purified Tat protein (HIV-1) (protein, UniProt P04608 1-86, looked up)
Protein Tat: MEPVDPRLEPWKHPGSQPKTACTNCYCKKCCFHCQVCFITKALGISYGRKKRRQRRRAHQNSQTHQASLSKQPTSQPRGDPTGPKE

What was measured:
calcineurin (CN) = details: complex with FKBP; cited from earlier work
CyPs = details: Sigal et al., 1991; cited from earlier work
T cell activation = details: Sigal et al., 1991; cited from earlier work
FKBP = details: Bierer et al., 1990; cited from earlier work
CyPA = test: Yeast GAL4 two hybrid, Gag/mutant fusions versus clone 2.1 (CyPA); format: cell-based, Human; details: versus 2.1 / CyPA
Text: (§1) FIG. 2. The Effect of Mutations in Pr55^gag on the Ability of Gag-GAL4 Fusion Proteins to Activate β-Gal Activity in Yeast Cotransformed with GAL4-CyP Fusion Protein Expression Plasmids. Mutant forms of Pr55^gag were subcloned into pGAL4DB-HG. A schematic of the gag coding sequence is shown, and sequence numbers indicated the nucleotide position in the HXB2C provirus with respect to the 5' end of the 5' long terminal repeat. The names of the mutants indicate the nucleotide sequences deleted or the location of linker inserts. Coding sequences retained by the mutants are shown with a box. Linker insertion mutations are denoted with a triangle. Yeast strain GGY1::171, which carries a GAL1-lacZ fusion gene integrated into the chromosome, was cotransformed with each mutant plasmid against plasmid 2.1 and against plasmid 4.1. Colonies were replica-plated onto nitrocellulose filters and scored for β-gal activity by incubation with X-Gal. Open boxes or triangles indicate that when tested against either 2.1 or 4.1, the mutant had activity equivalent to that of the wild-type (WT) Pr55^gag.
(§2) To localize the portion of Gag that mediates binding to the CyPs, the effect on binding of mutations in the Pr55^gag coding sequence was examined. […] Each of these plasmids encodes a stable fusion protein of the expected size detected on Western blot (Luban et al., 1993). […]

CyPB = test: Yeast GAL4 two hybrid, Gag/mutant fusions versus clone 4.1 (CyPB); format: cell-based, Human; details: versus 4.1 / CyPB
Text: as §1, §2

lymphocyte = details: Viscidi et al., 1989; cited from earlier work

Molecule	binding to and inhibiting CN phosphatase activity as FKBP complex (calcineurin (CN))	two hybrid interaction with CyPA (in words) (CyPA)	two hybrid interaction with CyPB (in words) (CyPB)	also measured
C=CC[C@@H]1/C=C(\C)C[C@H](C)C[C@H](OC)[C@H]2O[C@@](O)(C(=O)C(=O)N3CCCC[C@H]3C(=O)O[C@H](/C(C)=C/[C@@H]3CC[C@@H](O)[C@H](OC)C3)[C@H](C)[C@@H](O)CC1=O)[C@H](C)C[C@@H]2OC [FK506]	capable of binding to and inhibiting the phosphatase activity of CN			
C/C=C/C[C@@H](C)[C@@H](O)C1C(=O)N[C@@H](CC)C(=O)N(C)CC(=O)N(C)[C@@H](CC(C)C)C(=O)N[C@@H](C(C)C)C(=O)N(C)[C@@H](C)C(=O)N[C@@H](C)C(=O)N[C@H](C)C(=O)N(C)[C@@H](CC(C)C)C(=O)N(C)[C@@H](CC(C)C)C(=O)N(C)[C@@H](C(C)C)C(=O)N1C (stereo partly shown) [MeAla-CsA] (cyclo(A[dA][NMeL][NMeL][NMeV][ξNMeBmt][Abu][Sar][NMeL]V[NMeA]))				binding to CyPs (CyPs): bind to CyPs; suppression of T cell activation (T cell activation): do not suppress T cell activation
CO[C@H]1C[C@@H]2CC[C@@H](C)[C@@](O)(O2)C(=O)C(=O)N2CCCC[C@H]2C(=O)O[C@H]([C@H](C)C[C@@H]2CC[C@@H](O)[C@H](OC)C2)CC(=O)[C@H](C)/C=C(\C)[C@@H](O)[C@@H](OC)C(=O)[C@H](C)C[C@H](C)/C=C/C=C/C=C/1C [Rapamycin]	not capable of binding CN			competition with FK506 for binding to FKBP (FKBP): competes with FK506 for binding to FKBP
MPMV pr76^gag: Gag polyprotein of Mason-Pfizer monkey virus		no detectable activity	no detectable activity	
MoMLV Pr65^gag: Gag polyprotein of Moloney murine leukemia virus		no detectable activity	no detectable activity	
B1				antigen-stimulated lymphocyte proliferation (lymphocyte): inhibits
